Measured values published in ChEMBL document CHEMBL4229327, “Chemical Approaches to Modulating Complement-Mediated Diseases” (J Med Chem, 2018).
Peptide text beside a SMILES is read from it.

Assays:
[1] = Inhibition of factor D in […]-activated cat serum assessed as decrease in human erythrocyte lysis; details: Felis catus
[2] = Inhibition of factor D in […]-activated dog serum assessed as decrease in human erythrocyte lysis; details: Canis lupus familiaris
[3] = target: T1, Mannan-binding lectin serine protease 2 (Homo sapiens, UniProt O00187); assay: Inhibition of MASP-2 (unknown origin) using Z-L-LysSBzl hydrochloride as substrate preincubated for 1 hr followed by substrate addition
T1 sequence (O00187 16-444 limits assumed): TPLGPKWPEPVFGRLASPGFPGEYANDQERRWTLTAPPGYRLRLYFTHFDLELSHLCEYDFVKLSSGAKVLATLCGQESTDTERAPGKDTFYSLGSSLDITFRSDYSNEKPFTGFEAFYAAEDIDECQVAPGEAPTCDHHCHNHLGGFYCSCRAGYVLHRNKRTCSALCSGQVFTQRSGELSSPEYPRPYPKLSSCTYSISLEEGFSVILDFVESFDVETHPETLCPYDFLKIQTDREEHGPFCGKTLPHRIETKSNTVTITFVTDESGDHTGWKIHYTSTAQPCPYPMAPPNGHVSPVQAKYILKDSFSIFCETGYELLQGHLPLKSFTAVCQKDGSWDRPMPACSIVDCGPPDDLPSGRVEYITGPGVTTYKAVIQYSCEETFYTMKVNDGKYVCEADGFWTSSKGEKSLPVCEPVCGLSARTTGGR
T1 sequence (O00187 445-686 limits assumed): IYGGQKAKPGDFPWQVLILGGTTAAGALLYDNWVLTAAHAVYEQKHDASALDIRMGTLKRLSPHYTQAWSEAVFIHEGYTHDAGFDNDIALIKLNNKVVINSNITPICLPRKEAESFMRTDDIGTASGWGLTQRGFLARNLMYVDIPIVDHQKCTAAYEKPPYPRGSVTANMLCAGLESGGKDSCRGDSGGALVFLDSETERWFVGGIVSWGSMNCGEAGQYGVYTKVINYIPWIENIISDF

[4] = target: T1, Mannan-binding lectin serine protease 2; assay: Inhibition of MASP-2-mediated C4 deposition in human serum after 1 hr by ELISA
[5] = target: T2, Mannan-binding lectin serine protease 1 (Homo sapiens, UniProt P48740); assay: Inhibition of MASP-1-mediated C3 deposition in human serum after 30 mins by ELISA
T2 sequence (P48740 whole entry): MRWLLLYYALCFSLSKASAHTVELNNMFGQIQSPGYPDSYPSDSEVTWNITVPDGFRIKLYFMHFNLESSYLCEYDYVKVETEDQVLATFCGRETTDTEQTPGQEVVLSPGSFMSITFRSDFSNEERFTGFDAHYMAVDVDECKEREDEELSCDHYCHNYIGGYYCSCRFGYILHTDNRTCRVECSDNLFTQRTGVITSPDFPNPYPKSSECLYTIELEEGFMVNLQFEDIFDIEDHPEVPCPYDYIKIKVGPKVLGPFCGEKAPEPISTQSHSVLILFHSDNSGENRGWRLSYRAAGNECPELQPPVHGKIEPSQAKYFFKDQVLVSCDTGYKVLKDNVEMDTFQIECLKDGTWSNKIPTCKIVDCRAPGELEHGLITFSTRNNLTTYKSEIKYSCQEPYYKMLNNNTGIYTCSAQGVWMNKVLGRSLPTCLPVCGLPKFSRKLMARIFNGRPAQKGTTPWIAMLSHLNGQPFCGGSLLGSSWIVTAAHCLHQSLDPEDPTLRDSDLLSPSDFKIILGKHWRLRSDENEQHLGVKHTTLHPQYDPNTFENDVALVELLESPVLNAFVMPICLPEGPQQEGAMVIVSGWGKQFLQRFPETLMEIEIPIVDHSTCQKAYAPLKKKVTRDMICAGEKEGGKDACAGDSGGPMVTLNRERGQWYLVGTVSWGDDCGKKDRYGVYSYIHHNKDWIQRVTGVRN

Complement factor D [6] = target: T3, Complement factor D (Homo sapiens, UniProt P00746); assay: Displacement of Cy5 from recombinant human biotin labeled factor D expressed in Escherichia coli after 2 hrs by TR-FRET assay
T3 sequence (P00746 whole entry): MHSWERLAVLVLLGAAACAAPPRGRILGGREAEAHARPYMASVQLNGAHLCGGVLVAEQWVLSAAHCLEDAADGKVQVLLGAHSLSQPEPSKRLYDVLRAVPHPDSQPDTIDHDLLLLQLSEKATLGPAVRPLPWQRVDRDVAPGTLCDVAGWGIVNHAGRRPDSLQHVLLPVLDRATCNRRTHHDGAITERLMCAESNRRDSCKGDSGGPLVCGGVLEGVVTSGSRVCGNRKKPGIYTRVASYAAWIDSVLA

[7] = target: T4, C3a anaphylatoxin chemotactic receptor (Homo sapiens, UniProt Q16581); assay: Displacement of 125I-C3a from human C3aR expressed in RBL-2H3 cells; format: cell-based
T4 sequence (Q16581 whole entry): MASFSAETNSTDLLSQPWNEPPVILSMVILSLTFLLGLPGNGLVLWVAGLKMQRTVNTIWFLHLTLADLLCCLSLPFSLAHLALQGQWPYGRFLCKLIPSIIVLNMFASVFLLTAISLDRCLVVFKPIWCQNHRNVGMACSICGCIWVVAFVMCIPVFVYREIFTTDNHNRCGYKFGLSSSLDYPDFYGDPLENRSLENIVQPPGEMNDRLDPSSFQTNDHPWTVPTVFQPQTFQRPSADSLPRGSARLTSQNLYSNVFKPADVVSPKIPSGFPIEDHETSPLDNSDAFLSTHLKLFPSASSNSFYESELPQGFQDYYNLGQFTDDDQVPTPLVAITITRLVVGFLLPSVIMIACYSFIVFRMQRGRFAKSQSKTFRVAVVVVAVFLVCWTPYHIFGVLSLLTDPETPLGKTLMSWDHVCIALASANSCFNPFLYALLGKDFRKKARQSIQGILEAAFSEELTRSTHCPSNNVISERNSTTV

[8] = target: T4, C3a anaphylatoxin chemotactic receptor; assay: Antagonist activity at human C3aR expressed in RBL-2H3 cells assessed as inhibition of C3a-induced intracellular calcium mobilization; format: functional, cell-based
[9] = Oral bioavailability in Wistar rat at 10 mg/kg; format: ADME, organism-based; details: in vivo
[10] = Half life in Wistar rat at 10 mg/kg, po or 1 mg/kg, iv; format: ADME, organism-based; details: in vivo
Complement C2 [11] = target: T5, Complement C2 (Homo sapiens, UniProt P06681); assay: Competitive/reversible inhibition of human C2 using Ac-SHLGLAR-pNA as substrate
T5 sequence (P06681 whole entry): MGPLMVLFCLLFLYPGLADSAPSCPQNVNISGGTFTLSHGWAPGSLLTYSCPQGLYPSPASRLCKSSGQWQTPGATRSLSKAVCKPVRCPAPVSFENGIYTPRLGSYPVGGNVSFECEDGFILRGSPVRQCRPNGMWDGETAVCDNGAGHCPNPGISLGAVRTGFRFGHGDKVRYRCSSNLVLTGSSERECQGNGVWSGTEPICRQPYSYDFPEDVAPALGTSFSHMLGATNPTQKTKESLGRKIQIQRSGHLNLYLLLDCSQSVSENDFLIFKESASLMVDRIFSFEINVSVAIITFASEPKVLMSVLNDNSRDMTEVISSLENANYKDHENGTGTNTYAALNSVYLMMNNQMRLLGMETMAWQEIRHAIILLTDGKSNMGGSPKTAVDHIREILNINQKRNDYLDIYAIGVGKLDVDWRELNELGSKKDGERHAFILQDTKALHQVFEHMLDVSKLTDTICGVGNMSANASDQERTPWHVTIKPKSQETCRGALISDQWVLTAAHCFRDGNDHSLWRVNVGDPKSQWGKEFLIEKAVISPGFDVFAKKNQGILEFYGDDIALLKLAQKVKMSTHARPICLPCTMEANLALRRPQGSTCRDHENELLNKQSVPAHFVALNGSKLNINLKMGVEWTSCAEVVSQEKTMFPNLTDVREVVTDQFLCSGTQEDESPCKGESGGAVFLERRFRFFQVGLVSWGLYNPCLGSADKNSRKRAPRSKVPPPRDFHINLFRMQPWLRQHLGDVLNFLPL

Complement C2 [12] = target: T5, Complement C2; assay: Inhibition of human C2-mediated C3 processing after 24 hrs by SDS-PAGE
Complement C2 [13] = target: T5, Complement C2; assay: Inhibition of C2-mediated MAC formation in human serum by ELISA
Integrin alpha-M/beta-2 [14] = target: T6, Integrin alpha-M/beta-2 (Homo sapiens, UniProt P05107+P11215); assay: Inhibition of C3bi-AP binding to CR3 derived from human PMN; format: protein-complex assay
T6 sequence (P05107 23-769 limits assumed, other chains not shown): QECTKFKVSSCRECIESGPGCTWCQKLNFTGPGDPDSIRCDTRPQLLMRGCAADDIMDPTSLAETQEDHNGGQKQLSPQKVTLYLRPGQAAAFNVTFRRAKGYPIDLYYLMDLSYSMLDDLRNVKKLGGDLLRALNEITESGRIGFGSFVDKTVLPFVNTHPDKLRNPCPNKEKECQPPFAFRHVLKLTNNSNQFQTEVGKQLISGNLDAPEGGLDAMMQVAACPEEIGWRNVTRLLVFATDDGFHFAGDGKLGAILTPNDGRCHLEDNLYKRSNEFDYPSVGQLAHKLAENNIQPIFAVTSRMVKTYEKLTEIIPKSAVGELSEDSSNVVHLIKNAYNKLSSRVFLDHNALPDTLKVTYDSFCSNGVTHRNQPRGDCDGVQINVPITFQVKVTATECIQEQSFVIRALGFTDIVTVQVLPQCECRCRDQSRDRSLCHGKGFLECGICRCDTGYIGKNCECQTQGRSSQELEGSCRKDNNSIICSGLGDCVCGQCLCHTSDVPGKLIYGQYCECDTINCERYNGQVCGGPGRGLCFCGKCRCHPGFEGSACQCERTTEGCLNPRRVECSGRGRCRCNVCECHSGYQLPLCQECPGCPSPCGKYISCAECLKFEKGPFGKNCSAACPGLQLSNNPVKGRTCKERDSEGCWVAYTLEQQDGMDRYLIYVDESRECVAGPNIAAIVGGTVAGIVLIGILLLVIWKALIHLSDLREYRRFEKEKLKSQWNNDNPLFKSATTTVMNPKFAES

Integrin alpha-M/beta-2 [15] = target: T6, Integrin alpha-M/beta-2; assay: Antagonist activity at CR3 in carboxyfluorescein diacetate succiminidyl ester-labeled human PMN assessed as inhibition of TNF/PMA-stimulated adhesion of PMN to fibrinogen preincubated for 10 mins followed by TNF/PMA addition by fluorescence assay; format: protein-complex assay
[16] = target: T4, C3a anaphylatoxin chemotactic receptor; assay: Antagonist activity at C3aR in HMDM assessed as inhibition of agonist-induced Ca2+ release; format: functional
[17] = target: T4, C3a anaphylatoxin chemotactic receptor; assay: Displacement of 125I-C3a from recombinant human C3aR expressed in HEK293 cell membranes after 3 hrs by scintillation proximity assay
Complement C3 = Complement C3 (Homo sapiens, UniProt P01024); assay: Inhibition of C3 in human serum by ELISA
Sequence of Complement C3 (P01024 23-667 limits assumed): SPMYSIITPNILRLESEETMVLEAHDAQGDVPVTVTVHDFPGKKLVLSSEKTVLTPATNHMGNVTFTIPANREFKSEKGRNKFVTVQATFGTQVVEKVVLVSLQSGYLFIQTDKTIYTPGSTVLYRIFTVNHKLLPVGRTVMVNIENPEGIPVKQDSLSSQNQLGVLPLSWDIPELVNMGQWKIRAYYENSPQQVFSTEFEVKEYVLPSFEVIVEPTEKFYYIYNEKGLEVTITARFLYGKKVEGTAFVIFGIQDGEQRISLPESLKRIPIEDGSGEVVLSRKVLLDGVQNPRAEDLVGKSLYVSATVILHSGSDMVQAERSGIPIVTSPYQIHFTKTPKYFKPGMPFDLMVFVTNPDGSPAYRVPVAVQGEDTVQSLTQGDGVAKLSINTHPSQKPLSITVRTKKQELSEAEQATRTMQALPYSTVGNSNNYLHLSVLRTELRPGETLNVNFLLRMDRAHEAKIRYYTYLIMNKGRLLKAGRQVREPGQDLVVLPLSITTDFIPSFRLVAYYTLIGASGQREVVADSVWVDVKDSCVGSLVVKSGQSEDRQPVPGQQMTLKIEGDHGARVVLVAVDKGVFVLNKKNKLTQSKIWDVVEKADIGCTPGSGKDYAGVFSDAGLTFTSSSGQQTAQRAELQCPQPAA
Sequence of Complement C3 (P01024 672-1663 limits assumed): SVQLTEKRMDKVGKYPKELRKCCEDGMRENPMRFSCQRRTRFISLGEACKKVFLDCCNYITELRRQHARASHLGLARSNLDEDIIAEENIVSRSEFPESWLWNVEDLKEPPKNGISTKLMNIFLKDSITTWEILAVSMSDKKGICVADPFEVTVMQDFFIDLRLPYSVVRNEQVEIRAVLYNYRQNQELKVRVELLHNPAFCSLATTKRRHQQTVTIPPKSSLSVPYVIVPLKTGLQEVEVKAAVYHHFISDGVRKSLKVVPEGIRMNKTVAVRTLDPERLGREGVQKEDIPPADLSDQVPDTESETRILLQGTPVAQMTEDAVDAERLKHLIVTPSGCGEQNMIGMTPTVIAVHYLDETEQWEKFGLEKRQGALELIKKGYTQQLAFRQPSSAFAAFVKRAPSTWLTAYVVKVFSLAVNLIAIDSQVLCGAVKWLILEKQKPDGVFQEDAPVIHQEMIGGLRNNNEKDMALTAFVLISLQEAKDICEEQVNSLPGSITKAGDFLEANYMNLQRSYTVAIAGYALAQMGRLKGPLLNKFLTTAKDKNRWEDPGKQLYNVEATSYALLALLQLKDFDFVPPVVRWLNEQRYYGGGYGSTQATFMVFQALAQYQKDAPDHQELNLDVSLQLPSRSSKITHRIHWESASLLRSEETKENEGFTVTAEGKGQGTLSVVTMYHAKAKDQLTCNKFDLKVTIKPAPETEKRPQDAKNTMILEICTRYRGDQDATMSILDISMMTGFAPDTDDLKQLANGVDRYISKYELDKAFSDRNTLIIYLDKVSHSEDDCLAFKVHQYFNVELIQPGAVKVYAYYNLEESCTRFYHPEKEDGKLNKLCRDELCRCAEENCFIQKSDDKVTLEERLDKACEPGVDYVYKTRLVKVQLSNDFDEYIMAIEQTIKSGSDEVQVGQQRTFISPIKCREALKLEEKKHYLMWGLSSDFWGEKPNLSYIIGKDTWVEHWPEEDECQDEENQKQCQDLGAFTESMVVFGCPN

[18] = target: T7, C5a anaphylatoxin chemotactic receptor 1 (Homo sapiens, UniProt P21730); assay: Antagonist activity at recombinant human C5aR1 expressed in Sf9 insect cell membranes co-expressing G-alphai2,G-beta1 and G-gamma2 assessed as inhibition of recombinant human C5a-induced [35S]GTPgammaS binding after 60 mins by liquid scintillation spectrometry; format: functional
T7 sequence (P21730 whole entry): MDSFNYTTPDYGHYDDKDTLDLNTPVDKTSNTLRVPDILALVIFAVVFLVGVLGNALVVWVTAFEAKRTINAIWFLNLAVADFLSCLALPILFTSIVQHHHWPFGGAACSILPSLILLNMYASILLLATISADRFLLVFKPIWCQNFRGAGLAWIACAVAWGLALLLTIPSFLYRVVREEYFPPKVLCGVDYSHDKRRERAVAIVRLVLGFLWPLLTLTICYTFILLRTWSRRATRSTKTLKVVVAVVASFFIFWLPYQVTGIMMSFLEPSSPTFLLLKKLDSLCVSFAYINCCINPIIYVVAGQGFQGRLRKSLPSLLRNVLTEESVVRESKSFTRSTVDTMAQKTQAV

Complement factor B = Complement factor B (Homo sapiens, UniProt P00751); assay: Displacement of Cy5 from recombinant human biotin-labeled factor B expressed in drosophila cells after 2 hrs by TR-FRET assay; format: cell-based
Sequence of Complement factor B (P00751 whole entry): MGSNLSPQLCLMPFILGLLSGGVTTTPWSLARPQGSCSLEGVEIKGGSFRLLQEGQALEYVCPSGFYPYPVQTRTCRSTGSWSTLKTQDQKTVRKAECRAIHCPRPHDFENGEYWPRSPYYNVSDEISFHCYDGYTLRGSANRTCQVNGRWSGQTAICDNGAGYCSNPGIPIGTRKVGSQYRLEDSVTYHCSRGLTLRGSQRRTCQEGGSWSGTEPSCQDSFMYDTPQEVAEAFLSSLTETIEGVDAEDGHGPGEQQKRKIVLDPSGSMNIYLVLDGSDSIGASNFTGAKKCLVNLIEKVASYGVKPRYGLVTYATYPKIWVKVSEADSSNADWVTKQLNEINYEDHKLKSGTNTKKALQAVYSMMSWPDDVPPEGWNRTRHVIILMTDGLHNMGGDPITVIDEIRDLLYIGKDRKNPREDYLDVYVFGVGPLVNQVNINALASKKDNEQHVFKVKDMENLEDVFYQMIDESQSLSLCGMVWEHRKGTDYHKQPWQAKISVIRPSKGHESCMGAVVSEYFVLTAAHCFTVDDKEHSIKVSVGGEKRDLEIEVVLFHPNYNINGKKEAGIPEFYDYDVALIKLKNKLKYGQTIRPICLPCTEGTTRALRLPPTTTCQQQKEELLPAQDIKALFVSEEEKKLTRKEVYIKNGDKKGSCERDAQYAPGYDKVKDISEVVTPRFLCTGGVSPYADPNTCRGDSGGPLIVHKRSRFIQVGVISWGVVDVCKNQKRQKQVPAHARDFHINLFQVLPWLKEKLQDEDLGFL

Complement factor D [19] = target: T3, Complement factor D
Description: Inhibition of factor D in human serum assessed as decrease in C3 deposition on PNH erythrocytes

[20] = target: T1, Mannan-binding lectin serine protease 2; assay: Inhibition of recombinant […] fragment of MASP-2 (unknown origin)
[21] = target: T1, Mannan-binding lectin serine protease 2; assay: Inhibition of MASP2 (unknown origin)-induced lectin pathway by ELISA
[22] = target: T4, C3a anaphylatoxin chemotactic receptor; assay: Agonist activity at C3aR in HMDM assessed as induction of Ca2+ release; format: functional

Compound: CC(=O)Oc1ccc(-c2ccc(OC(C)=O)c(C(=O)O)c2)cc1C(=O)O
- IC50 [1]: 100 nM
- IC50 [2]: 100 nM

Compound: CC[C@H](C)[C@H](NC(=O)[C@H](CS)NC(=O)[C@@H](NC(=O)[C@@H]1CCCN1C(=O)[C@@H]1CCCN1C(=O)[C@H](Cc1ccc(O)cc1)NC(=O)[C@H](CO)NC(=O)[C@H](CCCNC(=N)N)NC(=O)[C@H](CO)NC(=O)[C@H](CS)NC(=O)[C@H](Cc1ccc(O)cc1)NC(=O)CN)C(C)C)C(=O)N1CCC[C@H]1C(=O)N[C@@H](CC(=O)O)C(=O)O (H-GYCSRSYPPVCIPD-OH)
- Ki [3]: 180 nM
- IC50 [4]: 2700 nM
- IC50 [5]: 220 nM

Compound: Cn1cc(-c2cc(COc3ccccc3CC(=O)O)cc(-c3cccc(CC(N)=O)c3F)c2)cn1
- IC50 (Complement factor D [6]): 23 nM

Compound: N=C(N)NCCC[C@H](NC(=O)COCC(c1ccccc1)c1ccccc1)C(=O)O
- IC50 [7]: 200 nM
- IC50 [8]: 28 nM

Compound: COc1ccc2c(c1)C(C(=O)N(Cc1ccc(N(C)C)cc1)c1ccc(C(C)C)cc1)CCC2 (stereo unspecified)
- bioavailability [9]: 70%
- half-life [10]: 60 to 180 min

Compound: CC(=O)N[C@@H](CCCNC(=N)N)C(=O)N[C@@H](CC(C)C)C(=O)N[C@@H](CC(C)C)C(=O)N[C@@H](CC(C)C)C(=O)N[C@@H](C)C(=O)N[C@H](C=O)CCCNC(=N)N (Ac-RLLLAR-aldehyde)
- IC50 (Complement C2 [11]): 330 nM
- IC50 (Complement C2 [12]): 500 to 1000 nM
- IC50 (Complement C2 [13]): 7.3 µM

Compound: CCN1/C(=C/C=C/c2sc3ccccc3[n+]2CC)Sc2ccccc21
- IC50 (Integrin alpha-M/beta-2 [14]): 330 nM
- IC50 (Integrin alpha-M/beta-2 [15]): 2.5 to 10 µM

Compound: N=C(N)NCCC[C@@H](C(=O)O)N1Cc2nc(C(c3ccccc3)c3ccccc3)sc2C1=O
- IC50 [16]: 320 nM

Compound: N=C(N)NCCC[C@H](NC(=O)c1cccn(Cc2ccccc2Br)c1=O)C(=O)O
- IC50 [17]: 50 nM

Compound: CC[n+]1c(/C=C/C=C/N2CCCc3ccccc32)sc2ccc3ccccc3c21
- IC50 (Integrin alpha-M/beta-2 [14]): 140 nM
- IC50 (Integrin alpha-M/beta-2 [15]): 2.5 to 10 µM

Compound: CC(=O)N[C@@H](Cc1ccccc1)C(=O)N[C@H]1CCCNC(=O)[C@H](CCCNC(=N)N)NC(=O)[C@H](Cc2c[nH]c3ccccc23)NC(=O)[C@@H](CC2CCCCC2)NC(=O)[C@@H]2CCCN2C1=O
- bioavailability [9]: ≤ 2%
- half-life [10]: 1200 min

Compound: CCc1cccc(CC)c1-c1cc(OC(C)C)c2c(n1)CCCC2Nc1ccccc1CCO (stereo unspecified)
- half-life [10]: 60 to 180 min

Compound: CC(=O)Oc1ccc(Cc2ccc(OC(C)=O)c(C(=O)O)c2)cc1C(=O)O
- IC50 [1]: 100 nM
- IC50 [2]: 100 nM

Compound: CC[C@H](C)[C@H](NC(C)=O)C(=O)N[C@H]1CSSC[C@@H](C(=O)N(C)[C@H](C(N)=O)[C@@H](C)CC)NC(=O)[C@H](CCCNC(=N)N)NC(=O)[C@H](Cc2c[nH]cn2)NC(=O)[C@H](C)NC(=O)CN(C)C(=O)[C@H](Cc2c[nH]c3ccccc23)NC(=O)[C@H](CC(=O)O)NC(=O)[C@H](CCC(N)=O)NC(=O)[C@H](Cc2cn(C)c3ccccc23)NC(=O)[C@H](C(C)C)NC1=O
- IC50 (Complement C3): 62 nM

Compound: C[C@@H](C(=O)N(Cc1ccccc1F)C1Cc2ccccc2C1)N1CCc2ccccc2[C@@H]1c1cccc2ccccc12
- Ki [18]: 15.2 nM

Compound: COc1cc(C)c2[nH]ccc2c1C(C)(C)c1nc2cc(C#N)cnc2[nH]1
- IC50 (Complement factor B): 30 nM

Compound: CC(=O)c1nn(CC(=O)N2C[C@H](F)C[C@H]2C(=O)Nc2cccc(Br)n2)c2ccc(-c3cnc(C)nc3)cc12
- IC90 (Complement factor D [19]): 89 nM

Compound: CC(C)C[C@H](NC(=O)[C@H](CCCCN)NC(=O)[C@@H](NC(=O)[C@H](CS)NC(=O)[C@@H](NC(=O)[C@H](C)NC(=O)[C@H](CO)NC(=O)[C@H](CCCCN)NC(=O)CNC(=O)[C@H](CC(=O)O)NC(=O)[C@H](CO)NC(=O)CNC(=O)[C@H](CS)NC(=O)[C@H](CCCNC(=N)N)NC(=O)[C@H](CS)NC(=O)[C@@H](NC(=O)[C@H](CC(N)=O)NC(=O)[C@H](CS)NC(=O)[C@H](CCCCN)NC(=O)[C@H](CC(=O)O)NC(=O)[C@H](CCCCN)NC(=O)[C@H](Cc1ccccc1)NC(=O)[C@@H](NC(=O)[C@@H](NC(=O)CNC(=O)[C@@H]1CCCN1C(=O)[C@H](CCC(=O)O)NC(=O)[C@H](CS)NC(=O)[C@@H](NC(=O)[C@@H](NC(=O)[C@@H](N)CCC(=O)O)C(C)C)[C@@H](C)O)[C@@H](C)O)[C@@H](C)O)[C@@H](C)O)C(C)C)[C@@H](C)O)C(=O)N[C@@H](Cc1c[nH]c2ccccc12)C(=O)N[C@@H](CS)C(=O)N[C@@H](CC(N)=O)C(=O)N[C@@H](CCC(N)=O)C(=O)O (H-EVTCEPGTTFKDKCNTCRCGSDGKSAVCTKLWCNQ-OH)
- Ki [20]: 6 nM
- IC50 [21]: 66 nM

Compound: N=C(N)NCCC[C@H](Nc1nccc2[nH]c(C(c3ccccc3)c3ccccc3)nc12)C(=O)O
- EC50 [22]: 15 nM
